Tests used:
Assay type in all cases: cell-based, rat
[1] = system: myoblasts isolated from the WT EOMs; assay: EdU proliferation of EOM-derived myoblasts treated with TSHR antagonist; conditions: 10 μM, 2 days, serum-free, EdU pulse 24 h, vs DMSO
Experimental: To evaluate the functional importance of the expression of TSHR in the MSCs of the EOMs, the myoblasts were isolated from the WT EOMs and treated with a selective antagonist of the TSH receptor, ML224 (Neumann et al., 2014).
(§1) For this, the myoblasts derived from MSC were treated with 10 μM of ML224 (HY12381-S, CliniSciences) for 2 days (proliferation) or 7 days (differentiation) or 20 μM of forskolin (F3917, Sigma-Aldrich) (following experiment) only for 48 h. The control cells were treated with DMSO (D8418, Sigma Aldrich) as a vehicle for ML224 and forskolin.
The proliferation was measured after 24 h of culture by adding to the culture medium a pulse of […] of 5-ethynyl-20-deoxyuridine (EdU) for 24 h (EdU Click-iT PLUS Kit C10640, Life Technologies).
This experiment is carried out under serum-free conditions in order to prevent any stimulation of TSHR by the presence of TSH in the serum, which explains the lowest proliferative capacity of the myoblasts of the EOMs treated with the vehicle, relative to the data presented above (FIG. 3I).

[2] = system: myoblasts isolated from the WT EOMs; assay: Myogenic differentiation (MF20 staining, fusion index) of EOM myoblasts; conditions: 10 μM, 7 days, vs DMSO
Experimental: For this, the cells were fixed with 4% PFA for 10 minutes at 4° C. and permeabilized with 0.5% Triton in 1×PBS for 6 minutes. After blocking with 10% BSA for 30 minutes at room temperature, the cells were incubated O/N at 4° C. with the following primary antibodies: Pax7 (Santa Cruz Biotechnology, sc-81648), MyoD (Dako, clone 5.8A, M3512), ki67 (Abcam, sp6 ab16667), sarcomeric myosin heavy chain (MF20, DSHB, AB_2147781).
The cell suspension was passed through cell filters and centrifuged at 600 g/minute for 5 minutes, at 4° C. The supernatant was removed and the cell pellet was resuspended in 20% fetal bovine serum (Cat #S1810-500 Dominique Dutscher) in DMEM (Cat #41966-029 Gibco) supplemented by 25 ng/mL of bFGF (RP4037, Sigma-Aldrich) with […] of penicillin/streptomycin (354234, Life Sciences) covered with matrigel (Sarstedt, #94.6140.802). The cells were grown for 48 hours to evaluate the proliferation. After 48 h of proliferation, the cells were cultured for 5 days in 5% fetal bovine serum to induce differentiation.
as §1

[3] = system: Cdkn1a (p21) and Cdkn2a (p16) expression in EOM-derived myoblasts; assay: qPCR of senescence markers in EOM-derived myoblasts; conditions: EOM satellite cells in culture, 10 μM, vs DMSO
Experimental: The absence of Cdkn1a and Cdkn2a transcripts is also validated as well as the specific expression of TSHR on muscle satellite cells freshly isolated from EOMs by qRT-PCR (FIG. 6D): The RNA is extracted using the total RNA isolation kit RNAqueous-Micro (Invitrogen) and back-transcribed using SuperScript™ III reverse transcriptase (Invitrogen, 18080093) according to the manufacturer's instructions.
The qPCR is carried out using the StepOnePlus real-time PCR system (Applied Biosystems) and SYBR Green detection tools (Applied Biosystems).
The results are reported as relative gene expression (2-DDCT) using the vehicle-treated cells or the extra-ocular derived myoblasts as a reference. Gene expression is normalized on the expression levels of β-actin.
as §1

In the case of `COc1ccc(C2Nc3ccccc3C(=O)N2Cc2ccco2)cc1COc1c(C)cc(NC(C)=O)cc1C` (centres unmarked) [ML224], the “Proliferative myoblasts (Pax7+/MyoD+/EdU+ cells) relative to vehicle” value [1] is reported as “significant decrease”, the “Differentiation / formation of myotubes” value [2] is reported as “differentiation defects” and the “Fusion index compared to vehicle control” value [2] is reported as “significant reduction”. For the same compound, the “Expression of Cdkn1a (p21)” value [3] was “induced the expression” and the “Expression of Cdkn2a (p16)” value [3] was “induced the expression”.

— US20240343779A1, “PHARMACOLOGICAL AND/OR GENETIC ACTIVATOR FOR USE IN PRESERVING AND REGENERATING MUSCLE STRUCTURE AND FUNCTION BY BLOCKING SENESCENCE” (ASSOCIATION FRANCAISE CONTRE LES MYOPATHIES, priority 2021, published 2024)
